Source: the NIST ThermoML archive (doi:10.1016/j.jct.2018.08.013)
Where “and” joins values, the source holds several entries; their conditions need not be identical. Equal values may be shown once.

Legend:
[1] = xn = mol fraction of the nth substance listed; details: 298 K; 100 kPa; Crystal of intercomponent compound 1; X-ray diffraction; x2 = 0.451
[2] = specific heat capacity at constant pressure; xn = mol fraction of the nth substance listed; details: 100 kPa, Crystal of intercomponent compound 1, x2 = 0.451

[S] [sulfur] + [In]
Details | mass density [kg/m3]
[1] | 5211

[2]
Details | specific heat capacity
14.16 K, relaxation calorimetry | 10.46 J/K/kg
14.18 K, relaxation calorimetry | 10.51 J/K/kg
16.17 K, relaxation calorimetry | 15.52 J/K/kg
16.18 K, relaxation calorimetry | 15.54 J/K/kg
16.19 K, relaxation calorimetry | 15.59 J/K/kg
18.2 K, relaxation calorimetry | 21.32 J/K/kg and 21.36 J/K/kg
20.21 K, relaxation calorimetry | 27.47 J/K/kg and 27.51 J/K/kg
20.22 K, relaxation calorimetry | 27.57 J/K/kg
22.23 K, relaxation calorimetry | 33.81 J/K/kg and 33.8 J/K/kg
22.24 K, relaxation calorimetry | 33.85 J/K/kg
24.25 K, relaxation calorimetry | 40.26 J/K/kg and 40.2 J/K/kg
24.26 K, relaxation calorimetry | 40.28 J/K/kg
26.26 K, relaxation calorimetry | 46.66 J/K/kg and 46.68 J/K/kg
26.27 K, relaxation calorimetry | 46.58 J/K/kg
28.28 K, relaxation calorimetry | 52.75 J/K/kg and 52.77 J/K/kg and 52.81 J/K/kg
30.3 K, relaxation calorimetry | 58.62 J/K/kg and 58.63 J/K/kg
30.31 K, relaxation calorimetry | 58.71 J/K/kg
35.34 K, relaxation calorimetry | 72.92 J/K/kg
35.36 K, relaxation calorimetry | 72.92 J/K/kg
40.38 K, relaxation calorimetry | 85.85 J/K/kg
45.42 K, relaxation calorimetry | 97.7 J/K/kg
45.43 K, relaxation calorimetry | 97.63 J/K/kg
45.44 K, relaxation calorimetry | 97.63 J/K/kg
50.46 K, relaxation calorimetry | 109.27 J/K/kg and 109.41 J/K/kg
50.48 K, relaxation calorimetry | 109.27 J/K/kg
55.5 K, relaxation calorimetry | 120.03 J/K/kg and 120.1 J/K/kg
55.51 K, relaxation calorimetry | 120.17 J/K/kg
60.54 K, relaxation calorimetry | 130.38 J/K/kg and 130.24 J/K/kg
65.58 K, relaxation calorimetry | 140.8 J/K/kg and 140.86 J/K/kg
65.59 K, relaxation calorimetry | 140.8 J/K/kg
70.62 K, relaxation calorimetry | 151.01 J/K/kg and 151.08 J/K/kg
70.64 K, relaxation calorimetry | 150.94 J/K/kg
75.66 K, relaxation calorimetry | 160.88 J/K/kg and 160.47 J/K/kg and 160.68 J/K/kg
80.69 K, relaxation calorimetry | 170.82 J/K/kg and 170.68 J/K/kg and 170.62 J/K/kg
85.73 K, relaxation calorimetry | 180.22 J/K/kg and 180.15 J/K/kg and 179.74 J/K/kg
90.75 K, relaxation calorimetry | 189.47 J/K/kg
90.77 K, relaxation calorimetry | 189.13 J/K/kg and 188.59 J/K/kg
95.78 K, relaxation calorimetry | 197.58 J/K/kg
95.79 K, relaxation calorimetry | 197.17 J/K/kg and 197.1 J/K/kg
100.82 K, relaxation calorimetry | 204.93 J/K/kg
100.83 K, relaxation calorimetry | 204.59 J/K/kg
100.92 K, relaxation calorimetry | 204.18 J/K/kg
105.86 K, relaxation calorimetry | 212.83 J/K/kg
105.87 K, relaxation calorimetry | 213.24 J/K/kg and 212.76 J/K/kg
113.82 K, relaxation calorimetry | 223.18 J/K/kg and 223.24 J/K/kg and 222.9 J/K/kg
121.72 K, relaxation calorimetry | 233.18 J/K/kg
121.75 K, relaxation calorimetry | 233.18 J/K/kg
121.76 K, relaxation calorimetry | 233.12 J/K/kg
129.68 K, relaxation calorimetry | 241.97 J/K/kg
129.69 K, relaxation calorimetry | 242.31 J/K/kg and 241.97 J/K/kg
137.6 K, relaxation calorimetry | 249.86 J/K/kg
137.62 K, relaxation calorimetry | 250 J/K/kg
145.51 K, relaxation calorimetry | 257.22 J/K/kg
145.55 K, relaxation calorimetry | 257.15 J/K/kg and 256.88 J/K/kg
153.44 K, relaxation calorimetry | 264.09 J/K/kg
153.45 K, relaxation calorimetry | 264.23 J/K/kg
153.46 K, relaxation calorimetry | 264.03 J/K/kg
161.36 K, relaxation calorimetry | 269.88 J/K/kg
161.38 K, relaxation calorimetry | 270.02 J/K/kg
161.39 K, relaxation calorimetry | 270.08 J/K/kg
169.28 K, relaxation calorimetry | 275.6 J/K/kg
169.31 K, relaxation calorimetry | 275.74 J/K/kg
169.32 K, relaxation calorimetry | 275.46 J/K/kg
177.2 K, relaxation calorimetry | 280.36 J/K/kg
177.24 K, relaxation calorimetry | 280.23 J/K/kg and 280.3 J/K/kg
185.14 K, relaxation calorimetry | 284.52 J/K/kg
185.17 K, relaxation calorimetry | 284.79 J/K/kg and 284.86 J/K/kg
193.05 K, relaxation calorimetry | 288.4 J/K/kg
193.08 K, relaxation calorimetry | 288.74 J/K/kg
193.09 K, relaxation calorimetry | 289.08 J/K/kg
200.97 K, relaxation calorimetry | 292.69 J/K/kg
201 K, relaxation calorimetry | 292.89 J/K/kg
201.01 K, relaxation calorimetry | 293.03 J/K/kg
208.88 K, relaxation calorimetry | 296.02 J/K/kg
208.92 K, relaxation calorimetry | 295.96 J/K/kg and 296.16 J/K/kg
216.78 K, relaxation calorimetry | 299.56 J/K/kg
216.82 K, relaxation calorimetry | 299.7 J/K/kg
216.83 K, relaxation calorimetry | 299.7 J/K/kg
224.7 K, relaxation calorimetry | 302.56 J/K/kg
224.74 K, relaxation calorimetry | 303.1 J/K/kg
224.75 K, relaxation calorimetry | 302.7 J/K/kg
232.6 K, relaxation calorimetry | 305.01 J/K/kg
232.66 K, relaxation calorimetry | 305.01 J/K/kg and 305.22 J/K/kg
240.51 K, relaxation calorimetry | 306.71 J/K/kg
240.54 K, relaxation calorimetry | 307.67 J/K/kg and 307.53 J/K/kg
248.4 K, relaxation calorimetry | 309.84 J/K/kg
248.45 K, relaxation calorimetry | 310.12 J/K/kg
248.48 K, relaxation calorimetry | 308.89 J/K/kg
256.34 K, relaxation calorimetry | 310.59 J/K/kg
256.4 K, relaxation calorimetry | 310.73 J/K/kg and 310.66 J/K/kg
262.24 K, Extra sensitive DSC | 315.9 J/K/kg
264.24 K, relaxation calorimetry | 312.43 J/K/kg
264.3 K, relaxation calorimetry | 312.98 J/K/kg
264.31 K, relaxation calorimetry | 312.98 J/K/kg
265 K, Extra sensitive DSC | 316.72 J/K/kg
270 K, Extra sensitive DSC | 317.74 J/K/kg
275 K, Extra sensitive DSC | 319.31 J/K/kg
280 K, Extra sensitive DSC | 320.94 J/K/kg
285 K, Extra sensitive DSC | 322.44 J/K/kg
290 K, Extra sensitive DSC | 323.94 J/K/kg
295 K, Extra sensitive DSC | 325.44 J/K/kg
300 K, Extra sensitive DSC | 326.59 J/K/kg
305 K, Extra sensitive DSC | 328.02 J/K/kg
310 K, Extra sensitive DSC | 329.18 J/K/kg
315 K, Extra sensitive DSC | 329.93 J/K/kg
320 K, Extra sensitive DSC | 330.54 J/K/kg
325 K, Extra sensitive DSC | 331.29 J/K/kg
330 K, Extra sensitive DSC | 332.31 J/K/kg
335 K, Extra sensitive DSC | 333.13 J/K/kg
337.86 K, Extra sensitive DSC | 333.4 J/K/kg
340.38 K, Extra sensitive DSC | 332.92 J/K/kg
343.85 K, Extra sensitive DSC | 333.47 J/K/kg
345.58 K, Extra sensitive DSC | 333.74 J/K/kg
348.19 K, Extra sensitive DSC | 335.31 J/K/kg
350.79 K, Extra sensitive DSC | 335.51 J/K/kg
353.39 K, Extra sensitive DSC | 335.99 J/K/kg
355.13 K, Extra sensitive DSC | 336.53 J/K/kg
356 K, Extra sensitive DSC | 335.78 J/K/kg
358.6 K, Extra sensitive DSC | 336.4 J/K/kg
